Test results taken from patent US20180071317A1, “USE OF AGENTS THAT ALTER THE PERITUMORAL ENVIRONMENT FOR THE TREATMENT OF CANCER” (SERVICIO ANDALUZ DE SALUD, priority 2011, published 2018).

What was measured:
[1] = system: fibroblasts (PHF) co-cultured with tumor cells of human gastric adenocarcinoma (23132/87); assay: Marker expression (IHC) in PHF co-cultured with 23132/87 tumor cells; type: cell-based; conditions: co-culture with 23132/87; SP 1 μM + antagonist 1 μM; 48 h;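 further: cultures grown in fresh plasma from a healthy human donor, values give the percentage of PHF fibroblasts positive for the marker, each experiment run in six replicates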
Procedure: All cultures were maintained 48 hours, following which the same cells were included in paraffin blocks for subsequent analysis of the expression of different markers by immunohistochemistry (see Example 1). The primary antibodies used to perform immunohistochemical assays and their concentration are detailed in Example 2. All experiments were carried out sixfold. Analyzed markers in fibroblast cells (stromal cells) were: TGF-α, TGF-β1, TGF-β2, TGF-β3, SPARC, MMP-3, MMP-7, MMP-9, MMP-11, MMP-13 and MMP-14.

[2] = system: fibroblasts (PHF) co-cultured with human choriocarcinoma tumor cells (AC-1M32); assay: Marker expression (IHC) in PHF co-cultured with AC-1M32 tumor cells; type: cell-based; conditions: co-culture with AC-1M32; SP 1 μM + antagonist 1 μM; 48 h;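 further: Read-out is the percentage of PHF fibroblasts positive for each marker, with cells grown in fresh healthy-donor blood plasma, six replicates, reference being fibroblasts cultured alone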
Procedure: (§1) All cultures were maintained 48 hours, following which the same cells were included in paraffin blocks for subsequent analysis of the expression of different markers by immunohistochemistry (see Example 1). […] All experiments were carried out sixfold. Analyzed markers in fibroblast cells (stromal cells) were: TGF-α, TGF-β1, TGF-β2, TGF-β3, SPARC, MMP-3, MMP-7, MMP-9, MMP-11, MMP-13 and MMP-14.

[3] = system: fibroblasts (PHF) co-cultured with human neuroblastoma tumor cells (KELLY); assay: Marker expression (IHC) in PHF co-cultured with KELLY tumor cells; type: cell-based; conditions: PHF co-cultured with KELLY + SP + NK1 antagonist;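 further: Co-cultures grown on healthy-donor human blood plasma, run in six replicates, value is percentage of fibroblasts positive for each marker, compared with fibroblasts cultured alone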
Procedure: as §1

[4] = system: fibroblasts (PHF) co-cultivated with tumor cell carcinoma of urinary bladder (5637); assay: Marker expression (IHC) in PHF co-cultured with 5637 tumor cells; type: cell-based, human; conditions: co-culture with 5637; SP 1 μM + antagonist 1 μM; 48 h
Procedure: as §1

[5] = system: fibroblasts of tumors produced by human rhabdomyosarcoma tumor line (A-204); assay: Marker expression (IHC) in fibroblasts of tumor or peritumoral area, mouse model, A-204; type: in vivo; conditions: A-204 tumors in mice, 30 mg/kg/day oral, 7 days
Procedure: In vitro tests conducted in Example 5 are now carried out in an experimental model in mice in vivo. […] Subsequently, the expression in fibroblasts tumoral and peritumoral area of molecular markers associated with progression and maintenance of tumors: TGF-α, TGF-β1, TGF-β2, TGF-β3, MMP-7, MMP-11, MMP-14 were analyzed by immunohistochemistry.
Were injected with 2×10^7 cells tumors (corresponding, in each case to each of the tumor types as specified in Table 9) in 200 of PBS subcutaneously μl. […] Mice were randomized into two groups when the tumors reached a volume of 75 mm^3 One group was treated with non-peptide receptor antagonists NK1 and the other with placebo 200μ1. […] Tumors and samples of non-neoplastic stromal areas remote from the tumor were halved, formalin fixed (4%) and then were included in paraffin blocks for analysis by immunohistochemistry.
The expression on fibroblast cells obtained in the animal model was analyzed by immunohistochemistry, of the above markers: TGF-α, TGF-β1, TGF-β2, TGF-β3, MMP-7, MMP-1 1, MMP-14MP-14. Tables 32 to 35 depict the type of label used and the average percentage of fibroblasts present in non-tumor areas, tumor and peritumoral (±SD) which were expressing the marker shown in each of the tumor types developed from of the different cell lines used. This process was realized in mice treated with non-peptide antagonists of NK1 receptor and in untreated animals (control).

[6] = system: co-cultures of tumor cells-endothelial cells (C-12210); assay: Inhibition/survival in co-cultures of primary human tumor cells and endothelial cells; type: cell-based; conditions: survival in reference to control, SP 1 μM, Aprepitant 1 μM
Procedure: To check that the interaction of primary tumor cells extracted directly from human with human vascular endothelial cells, promotes the survival of both cell types, co-cultures were performed microvascular endothelial cells from juvenile foreskins (PromoCell GmbH, Sickingenstraβe 63/65, D-69126 Heidelberg, Germany; reference C-12210) with tumor cells obtained directly from primary human tumors.
A total of 6 wells containing tumor cells were used as control for survival. Another 6 wells containing tumor cells were cultured with addition of endothelial cells.
Subsequently, cells were embedded in paraffin for analysis by immunohistochemistry. In order to identify the different cell types and quantity of them [They were labelled with primary antibodies specific for human endothelial cells (anti-CD31), carcinoma cells (Anti-Cytokeratins Spread Spectrum), glioma (Anti-glial fibrillary acidic protein), fibrosarcoma and malignant fibrous histiocytoma (Anti-Smooth Muscle Actin), Ewing sarcoma (Anti-CD99), Melanoma (Anti-HMB45), leukemias and lymphomas (Anti-Common Antigen Leucitario) and myeloma (anti CD 138). All antibodies are distributed by Dako and were used at the same concentration which is supplied (supplied pre-diluted—“ready to use”).

[7] = Carcinoma of lung, (Small cell carcinoma in Table 36)
[8] = Carcinoma of lung, Non Small Cell Carcinoma in Table 36
[9] = Carcinoma of thyroid, (Follicular Carcinoma in Table 36)
[10] = Carcinoma of thyroid, (Papillary Carcinoma in Table 36)

SMILES: C[C@@H](O[C@H]1OCCN(Cc2n[nH]c(=O)[nH]2)[C@H]1c1ccc(F)cc1)c1cc(C(F)(F)F)cc(C(F)(F)F)c1 [Aprepitant]
- PHF cells expressing MMP-3 [1]: 0%
- PHF cells expressing MMP-7 [1]: 0%
- PHF cells expressing MMP-9 [1]: 0%
- PHF cells expressing MMP-11 [1]: 0%
- PHF cells expressing MMP-13 [1]: 0%
- PHF cells expressing MMP-14 [1]: 0%
- PHF cells expressing SPARC [1]: 0%
- PHF cells expressing TGF-α [1]: 0%
- PHF cells expressing TGF-β1 [1]: 0%
- PHF cells expressing TGF-β2 [1]: 0%
- PHF cells expressing TGF-β3 [1]: 0%
- PHF cells expressing MMP-3 [2]: 0%
- PHF cells expressing MMP-7 [2]: 0%
- PHF cells expressing MMP-9 [2]: 0%
- PHF cells expressing MMP-11 [2]: 0%
- PHF cells expressing MMP-13 [2]: 0%
- PHF cells expressing MMP-14 [2]: 0%
- PHF cells expressing SPARC [2]: 0%
- PHF cells expressing TGF-α [2]: 0%
- PHF cells expressing TGF-β1 [2]: 0%
- PHF cells expressing TGF-β2 [2]: 0%
- PHF cells expressing TGF-β3 [2]: 0%
- cells expressing MMP-3 [3]: 0%
- cells expressing MMP-7 [3]: 0%
- cells expressing MMP-9 [3]: 0%
- cells expressing MMP-11 [3]: 0%
- cells expressing MMP-13 [3]: 0%
- cells expressing MMP-14 [3]: 0%
- cells expressing SPARC [3]: 0%
- cells expressing TGF-α [3]: 0%
- cells expressing TGF-β1 [3]: 0%
- cells expressing TGF-β2 [3]: 0%
- cells expressing TGF-β3 [3]: 0%
- PHF cells expressing MMP-3 [4]: 0%
- PHF cells expressing MMP-7 [4]: 0%
- PHF cells expressing MMP-9 [4]: 0%
- PHF cells expressing MMP-11 [4]: 0%
- PHF cells expressing MMP-13 [4]: 0%
- PHF cells expressing MMP-14 [4]: 0%
- PHF cells expressing SPARC [4]: 0%
- PHF cells expressing TGF-α [4]: 0%
- PHF cells expressing TGF-β1 [4]: 0%
- PHF cells expressing TGF-β2 [4]: 0%
- PHF cells expressing TGF-β3 [4]: 0%
- fibroblasts expressing MMP-7 [5]: 0%
- fibroblasts expressing MMP-11 [5]: 0%
- fibroblasts expressing MMP-14 [5]: 0%
- fibroblasts expressing TGF-α [5]: 0%
- fibroblasts expressing TGF-β 1 [5]: 0%
- fibroblasts expressing TGF-β 2 [5]: 0%
- fibroblasts expressing TGF-β 3 [5]: 0%
- Endothelial cells co-cultured with tumor cells + SP + Aprepitant ([6]; Carcinoma of Colon): 57 ± 3%
- Tumor cells co-cultured with endothelial cells + SP + Aprepitant ([6]; Carcinoma of Colon): 61 ± 3%
- Endothelial cells co-cultured with tumor cells + SP + Aprepitant ([6]; Carcinoma of Pancreas): 52 ± 4%
- Tumor cells co-cultured with endothelial cells + SP + Aprepitant ([6]; Carcinoma of Pancreas): 46 ± 6%
- Endothelial cells co-cultured with tumor cells + SP + Aprepitant ([6]; Carcinoma of breast): 56 ± 6%
- Tumor cells co-cultured with endothelial cells + SP + Aprepitant ([6]; Carcinoma of breast): 56 ± 3%
- Endothelial cells co-cultured with tumor cells + SP + Aprepitant ([6]; Carcinoma of cervix): 45 ± 3%
- Tumor cells co-cultured with endothelial cells + SP + Aprepitant ([6]; Carcinoma of cervix): 46 ± 3%
- Endothelial cells co-cultured with tumor cells + SP + Aprepitant ([6]; Carcinoma of endometrial): 57 ± 4%
- Tumor cells co-cultured with endothelial cells + SP + Aprepitant ([6]; Carcinoma of endometrial): 49 ± 3%
- Endothelial cells co-cultured with tumor cells + SP + Aprepitant [6, 7]: 46 ± 7%
- Tumor cells co-cultured with endothelial cells + SP + Aprepitant [6, 7]: 63 ± 3%
- Endothelial cells co-cultured with tumor cells + SP + Aprepitant [6, 8]: 43 ± 4%
- Tumor cells co-cultured with endothelial cells + SP + Aprepitant [6, 8]: 65 ± 4%
- Endothelial cells co-cultured with tumor cells + SP + Aprepitant ([6]; Carcinoma of ovarian): 49 ± 5%
- Tumor cells co-cultured with endothelial cells + SP + Aprepitant ([6]; Carcinoma of ovarian): 54 ± 4%
- Endothelial cells co-cultured with tumor cells + SP + Aprepitant ([6]; Carcinoma of prostate): 54 ± 4%
- Tumor cells co-cultured with endothelial cells + SP + Aprepitant ([6]; Carcinoma of prostate): 47 ± 5%
- Endothelial cells co-cultured with tumor cells + SP + Aprepitant ([6]; Carcinoma of stomach): 65 ± 2%
- Tumor cells co-cultured with endothelial cells + SP + Aprepitant ([6]; Carcinoma of stomach): 54 ± 5%
- Endothelial cells co-cultured with tumor cells + SP + Aprepitant [6, 9]: 45 ± 3%
- Tumor cells co-cultured with endothelial cells + SP + Aprepitant [6, 9]: 46 ± 6%
- Endothelial cells co-cultured with tumor cells + SP + Aprepitant [6, 10]: 56 ± 6%
- Tumor cells co-cultured with endothelial cells + SP + Aprepitant [6, 10]: 56 ± 4%
- Endothelial cells co-cultured with tumor cells + SP + Aprepitant ([6]; Fibrosarcoma): 45 ± 6%
- Tumor cells co-cultured with endothelial cells + SP + Aprepitant ([6]; Fibrosarcoma): 55 ± 6%
- Endothelial cells co-cultured with tumor cells + SP + Aprepitant ([6]; Glioma): 56 ± 5%
- Tumor cells co-cultured with endothelial cells + SP + Aprepitant ([6]; Glioma): 49 ± 4%
- Endothelial cells co-cultured with tumor cells + SP + Aprepitant ([6]; Hodgkin's Lymphoma): 48 ± 4%
- Tumor cells co-cultured with endothelial cells + SP + Aprepitant ([6]; Hodgkin's Lymphoma): 74 ± 6%
- Endothelial cells co-cultured with tumor cells + SP + Aprepitant ([6]; Leukemia B): 46 ± 5%
- Tumor cells co-cultured with endothelial cells + SP + Aprepitant ([6]; Leukemia B): 54 ± 6%
- Endothelial cells co-cultured with tumor cells + SP + Aprepitant ([6]; Leukemia T): 56 ± 6%
- Tumor cells co-cultured with endothelial cells + SP + Aprepitant ([6]; Leukemia T): 56 ± 5%
- Endothelial cells co-cultured with tumor cells + SP + Aprepitant ([6]; Malignant fibrous histiocytoma): 56 ± 6%
- Tumor cells co-cultured with endothelial cells + SP + Aprepitant ([6]; Malignant fibrous histiocytoma): 44 ± 5%
- Endothelial cells co-cultured with tumor cells + SP + Aprepitant ([6]; Melanoma): 56 ± 6%
- Tumor cells co-cultured with endothelial cells + SP + Aprepitant ([6]; Melanoma): 46 ± 5%
- Endothelial cells co-cultured with tumor cells + SP + Aprepitant ([6]; Myeloma): 54 ± 8%
- Tumor cells co-cultured with endothelial cells + SP + Aprepitant ([6]; Myeloma): 64 ± 3%
- Endothelial cells co-cultured with tumor cells + SP + Aprepitant ([6]; Neuroblastoma): 49 ± 4%
- Tumor cells co-cultured with endothelial cells + SP + Aprepitant ([6]; Neuroblastoma): 55 ± 6%
- Endothelial cells co-cultured with tumor cells + SP + Aprepitant ([6]; Non-Hodgkin's Lymphoma B): 67 ± 5%
- Tumor cells co-cultured with endothelial cells + SP + Aprepitant ([6]; Non-Hodgkin's Lymphoma B): 49 ± 6%
- Endothelial cells co-cultured with tumor cells + SP + Aprepitant ([6]; Non-Hodgkin's Lymphoma T): 49 ± 4%
- Tumor cells co-cultured with endothelial cells + SP + Aprepitant ([6]; Non-Hodgkin's Lymphoma T): 83 ± 8%
- Endothelial cells co-cultured with tumor cells + SP + Aprepitant ([6]; Renal carcinoma): 56 ± 2%
- Tumor cells co-cultured with endothelial cells + SP + Aprepitant ([6]; Renal carcinoma): 53 ± 3%
- Endothelial cells co-cultured with tumor cells + SP + Aprepitant ([6]; Sarcoma of Ewing): 45 ± 5%
- Tumor cells co-cultured with endothelial cells + SP + Aprepitant ([6]; Sarcoma of Ewing): 45 ± 7%
